{"source": "ChEMBL document CHEMBL1155220", "about": "“The medicinal chemistry of dengue fever” (J Med Chem, 2009)", "key": {"[1]": {"test_system": "Dengue virus", "test": "Antiviral activity against Dengue virus", "format": "functional, organism-based"}, "[2]": {"test": "Inhibition of Dengue virus IMPDH"}, "[3]": {"test_system": "Dengue virus", "test": "Antiviral activity against Dengue virus by cell based assay", "format": "functional, organism-based"}, "[4]": {"test": "Inhibition of Dengue virus sEnvelope glycoprotein binding to immobilized heparin"}, "[5]": {"test_system": "Dengue virus", "test": "Antiviral activity against Dengue virus assessed as inhibition of virus-induced cytopathic effect by cell based assay", "format": "functional, organism-based"}, "[6]": {"test_system": "Dengue virus", "test": "Antiviral activity against Dengue virus assessed as reduction of virus yield by cell based assay", "format": "functional, organism-based"}, "[7]": {"test": "Inhibition of Dengue virus N7-methyl transferase"}, "[8]": {"test": "Inhibition of Dengue virus 2'-O-methyl transferase"}, "[9]": {"test": "Inhibition of Dengue virus NS3 helicase"}, "[10]": {"test_system": "Dengue virus", "test": "Inhibition of Dengue virus NS3 helicase at 100 uM"}}, "data": [{"smiles": "O[C@H]1[C@H](O)[C@@H](O)CN2CC[C@H](O)[C@H]12", "note": "[CASTANOSPERMINE]", "values": [{"measurement": "IC50", "setting": "[1]", "value": 1, "unit": "µM"}]}, {"smiles": "CCN(CCOC(=O)/C=C/c1ccc(O)cc1)Cc1cc(Cl)ccc1O", "values": [{"measurement": "IC50", "setting": "[1]", "value": 46, "unit": "µM"}]}, {"smiles": "C#Cc1c(C(N)=O)ncn1[C@@H]1O[C@H](CO)[C@@H](O)[C@H]1O", "values": [{"measurement": "IC50", "setting": "[2]", "value": 38, "unit": "µg/mL"}]}, {"smiles": "CCN(CCCN(CC)C(=O)c1ccc(O)cc1)C(=O)c1ccc(O)cc1", "values": [{"measurement": "IC50", "setting": "[1]", "value": 2000, "unit": "µM"}]}, {"smiles": "C[C@@]1(O)[C@H](O)[C@@H](CO)O[C@H]1n1ccc2c(N)ncnc21", "note": "[BETA-2'-C-METHYL-7-DEAZA-ADENOSINE]", "values": [{"measurement": "EC50", "setting": "[3]", "value": 15, "unit": "µM"}]}, {"smiles": "Cc1ccc(C(=O)Nc2ccc(S(=O)(=O)O)c3cc(S(=O)(=O)O)cc(S(=O)(=O)O)c23)cc1NC(=O)c1cccc(NC(=O)Nc2cccc(C(=O)Nc3cc(C(=O)Nc4ccc(S(=O)(=O)O)c5cc(S(=O)(=O)O)cc(S(=O)(=O)O)c45)ccc3C)c2)c1", "note": "[SURAMIN]", "values": [{"measurement": "IC50", "setting": "[4]", "value": 0.7, "unit": "µM"}]}, {"smiles": "CN[C@@H]1[C@@H](O)[C@@H](O[C@@H]2[C@@H](O)[C@H](O[C@H]3O[C@H]([C@@H](C)O)[C@@H](O)[C@H](O)[C@H]3N)[C@@H](N)C[C@H]2N)OC[C@]1(C)O", "note": "[GENETICIN]", "values": [{"measurement": "EC50", "setting": "[5]", "value": 6, "unit": "µM"}, {"measurement": "EC50", "setting": "[6]", "value": 4, "unit": "µM"}]}, {"smiles": "CN(CCCNC(=O)c1ccc(O)cc1)CCCNC(=O)c1ccc(O)cc1", "values": [{"measurement": "IC50", "setting": "[1]", "value": 2000, "unit": "µM"}]}, {"smiles": "O=C(O)/C=C/c1ccc(OS(=O)(=O)O)cc1", "values": [{"measurement": "IC50", "setting": "[1]", "value": 2000, "unit": "µM"}]}, {"smiles": "COc1c(C)c2c(c(O)c1C/C=C(\\C)CCC(=O)O)C(=O)OC2", "note": "[MYCOPHENOLIC ACID]", "values": [{"measurement": "IC50", "setting": "[2]", "value": 0.1, "unit": "µg/mL"}]}, {"smiles": "O=c1cnn([C@@H]2O[C@H](CO)[C@@H](O)[C@H]2O)c(=O)[nH]1", "note": "[6-AZAURIDINE]", "values": [{"measurement": "EC50", "setting": "[3]", "value": 0.1, "unit": "µg/mL"}]}, {"smiles": "O=C(O)C1=CC(=C(c2ccc(O)c(C(=O)O)c2)c2ccc(O)c(C(=O)O)c2)C=CC1=O", "note": "[AURINTRICARBOXYLIC ACID]", "values": [{"measurement": "IC50", "setting": "[7]", "value": 2.3, "unit": "µM"}, {"measurement": "IC50", "setting": "[8]", "value": 127, "unit": "µM"}]}, {"smiles": "NC(=O)c1ncn([C@@H]2O[C@H](CO)[C@@H](O)[C@H]2O)n1", "note": "[RIBAVIRIN]", "values": [{"measurement": "EC50", "setting": "[1]", "value": 49, "unit": "µg/mL"}, {"measurement": "IC50", "setting": "[2]", "value": 1.6, "unit": "µg/mL"}]}, {"smiles": "COc1cc(NC(=O)Nc2cccc(CNC(=O)O[C@H]3CCOC3)c2)ccc1-c1cnco1", "note": "[MERIMEPODIB]", "values": [{"measurement": "IC50", "setting": "[1]", "value": 8, "unit": "µM"}]}, {"smiles": "CN(CCCNC(=O)c1ccc(O)cc1)CCCNC(=O)c1ccc2cc(O)ccc2c1", "values": [{"measurement": "IC50", "setting": "[1]", "value": 294, "unit": "µM"}]}, {"smiles": "CO[C@@H]1[C@H](O)[C@@H](CO)O[C@H]1n1cnc2c(=O)[nH][nH]c(=O)c21", "values": [{"measurement": "IC50", "setting": "[9]", "value": 30, "unit": "µM"}, {"measurement": "inhibition", "setting": "[10]", "value": 30, "unit": "%"}]}]}
